The source of these data is patent publication EP1028734B1, “USE OF SPECIFIC STEADY-STATE R-TYPE CALCIUM CHANNEL BLOCKERS” (priority 1997, dated 1999).

“Also recorded” adds a separate entry of the source.

The test system of experiment [1] is human aortic vascular smooth muscle cell line. The experiment can be described thus: spontaneous proliferation of human aortic vascular smooth muscle cell line. It counts as cell-based. Conditions: MV8608 10^-8M, MV8612 10^-8M, nifedipine 10^-7M, Figure 28.
The subject of experiment [2] is T-type Ca^2+ current. In words: whole-cell voltage clamp, T-type Ca2+ current in heart cells. It counts as cell-based. Conditions: 10^-9M to 10^-7M, n=7. As to the method:
Single cells of different types in culture were prepared from biopsies of human, chick and rabbit. Known and accepted methods for the isolation of fast Na^+ current, T, L and R-type Ca^2+ channels as well as delayed outward K^+ current were used (Bkaily 1994, supra).
The compounds to be tested are added to the appropriate extracellular solution after recording a stable ionic current or normal steady-state level of [Ca]n and [Ca]n The effect of different concentrations of compounds are tested on the different type of current and [Ca]i of the different cell types. The effect of each concentration of the compounds in function of the time of exposure are then determined. Once the steady-state effect is reached, the second concentration is added, etc.
In another series of experiments (n=7), the effect of different concentrations of MV8608 were tested on the T-type Ca^2+ current (lCa) using the whole-cell voltage clamp technique and classical experimental conditions described elsewhere by the inventors (Bkaily G. et al., 1991, supra; 1992, supra; 1993, supra). […] As it can be seen in that figure, the inset effect of MV8608 in T-type ICa is immediate.

Experiment [3] relates to R-type Ca^2+ channel. The experiment can be described thus: Fura-2 total [Ca]i measurement, sustained increase of [Ca]i via stimulation of R-type Ca2+ channels. The class given is cell-based, chick, human, rabbit. From the text:
This sustained increase of Ca^2+ induced by depolarization of the cell membrane or hormones such as PAF, ET-1 and bradykinin is due to the increase of Ca^2+ influx through the R-type Ca^2+ channels at the sarcolemmal membrane and/or the nuclear membrane (Bkaily G., 1994, supra; 1996, supra; 1997a-d, supra). Using Ca^2+ fluorescence probes Fura-2 or Fluo-3 and 2 and three-dimension Ca^2+ imaging techniques (Bkaily G., 1994, supra; 1996, supra; 1997a-d, supra), the effect of hormones and drugs could be easily tested. These two methods are used with single cells of different types as described above. […]
Using Fura-2 [Ca]i measurement technique, in one series of experiments we tested the effect of MV8612 (10^-9M) on the stimulation of R-type Ca^2+-induced sustained increase of [Ca]i by sustained depolarization (Figures 26 and 27), PAF (10^-9M, Figure 34) and ET-1 (Figures 33 and 34).

In experiment [4] the test system is R-type Ca^2+ channel. The experiment can be described thus: cell attached single channel patch clamp, R-type Ca2+ channel in human aortic vascular smooth muscle cell line. The class given is cell-based. As to the method: Also, for the R-type Ca^2+ channel current, the effect of the compounds are tested on the R-type Ca^2+ channel amplitude, voltage dependency and probability of opening, by using the cell-attached patch clamp technique (Bkaily 1994, supra; 1996, supra) and intra and extra patch pipette application of the drug.
In another series of experiments (n=7), using the cell attached patch clamp technique (Bkaily G. 1994, supra; Bkaily G. et al., 1996, supra), the effect of 10^-7M of MV8608 on the R-type Ca^2+ channel in human aortic vascular smooth muscle cell line was tested. […] In a second series of experiments (n=3), the patch pipette solution was free of MV8608 and after recording the single channel activities at different voltages, MV8608 (final concentration of 10^-7M) was applied to the extra-patch pipette solution containing 140mM KCI (where the rest of the cell is bathing). This experiment was designed to verify whether MV8608 crossed the cell membrane and if so, whether its effect from the internal side of the channel under the patch is the same as that when applied at the outer side thereof. […] Such a pattern of increase of probability of opening and the open duration accompanied with the sporadic decrease of the single channel current amplitude has never been observed when MV8608 was applied at the outer side of the single channel under the patch pipette.
In another series of experiments (n=7), the effect of 10^-7M of MV8612 was tested on the R-type Ca^2+ in human aortic VSM cells, using the single channel cell attached recording technique and intra and extra patch pipette application of drugs.
In one series of experiments (n=3), MV8612 (total concentration, 10^-7M) was only applied to the patch pipette. […] As for MV8608, in one series of experiments (n=4), MV8612 (10^-7M) was only applied to the extra-patch pipette, in order to verify if the compound penetrates into the cytosol and if so, how it affects the R-type Ca^2+ channel activity.

In experiment [5] the test system is double-perfused mesenteric bed of the rat. The experiment can be described thus: double-perfused mesenteric bed of the rat. From the text: The inhibitory properties of MV8608 are specific for PAF as the response to ACh (arterial) and Angll (venous) are unaffected by the pregnane-containing moiety.

Take “(15R, 16R, 20S)-14, 16:15,20:16,21-triepoxi-15,16-seco 14β, 17α-pregn-5-ene-3β, 15-diol [MV8608]”: in experiment [1], the spontaneous proliferation entry is “significantly decreased”. Further, the “T-type ICa amplitude” value in experiment [2] is on record as “no effect; also recorded: relative weak depressing effect”. In experiment [3] (10^-6M of compound, human aortic VSM cell line (Figure 23)), the “sustained increase of [Ca]i induced by 10^-7M PAF” value was “able to block”. In experiment [3] (10^-9M of compound), the “sustained increase of [Ca]i induced by 10^-7M PAF” value is reported as “failed to significantly decrease”; the “sustained increase of [Ca]i induced by sustained depolarization, ET-1 (10^-9M), PAF (10^-9M) or BK (10^-6M)” value is “completely blocked”; the “time within which the block occurred” value lay within 4 to 5 min. The “basal sustained increase of [Ca]i” value in experiment [3] (10^-9M, freshly isolated human aortic endothelial cells, Figure 22) is reported as “decrease”. In addition, in experiment [3] (incl. MG63, FAOS-2, atherosclerotic human VSM cells, endothelial cells, T-lymphocytes, platelets (not shown), AOSMC-9), the “blockade of the R-type Ca^2+ channel across cell types” value was “blocked the R-type Ca^2+ channel in all cell types used”. In experiment [4] (10^-7M applied in the patch pipette), the “single channel conductance of R-type Ca^2+ channel” value is listed as “without affecting”. The “single channel amplitude and probability of opening of the single R-type Ca^2+ channel” value in experiment [4] (10^-7M applied in the patch pipette, 10^-6M nifedipine present) was “decreased the single channel amplitude and probability of opening”. The “single channel current amplitude” value in experiment [4] (10^-7M applied to the extra-patch pipette solution) was “spontaneous decrease and release of the blockade”. The “opening of the R-type channel (probability, duration, frequency)” value in experiment [4] (10^-7M applied to the extra-patch pipette solution (140mM KCl)) is “increased the probability and duration of opening”. Moreover, the “response to ACh (arterial) and AngII (venous)” value in experiment [5] is “unaffected”. Moreover, the “PAF induced arterial vasodilatation and venconstriction” value in experiment [5] (1 µM, Figure 24) is given as “blocked”. Besides, the PAF-induced responses entry in experiment [5] (concentration series) was “concentration-dependent inhibition”.
